As a reminder, the half-life is the time needed for the level to fall by half in the phase considered. What is called pEC50 is −log10 of the EC50, conventionally taken in molar units. As a reminder, the solubility is how much of the substance goes into solution per volume.

We go through ten compounds from ChEMBL document CHEMBL4840353, “Investigation on the solid-phase synthesis of silybin prodrugs and their timed-release” (Bioorg Med Chem, 2021).

Molecules are shown by their SMILES. pEC50: −log10 of the molar value. Values after ≈ are worked out from the molar mass of the structure shown. Where only a bound is given, the exact number is not on record here.

The nature of series [1]: Prodrug conversion assessed as RNase (unknown origin)-mediated drug release by measuring half life in simulated intestinal fluid at 1 mM by UV/Vis detector based HPLC analysis. In kind it is ADME. The conditions noted are these: human, simulated gi fluid, 1000 µM.
For series [2], the system named is SH-SY5Y. The series can be described thus: Cytotoxicity against human differentiated SH-SY5Y cells assessed as reduction in cell viability at 2 to 50 uM measured after 48 hrs by MTT assay. The conditions noted are these: dose 2-50 µM. It counts as cell-based. (Formazan colour is commonly taken as a measure of viable cells.)
The nature of series [3]: Stability in simulated intestinal fluid at pH 6.8 assessed as half life at 1 mM by HPLC analysis. In kind it is ADME.
The nature of series [4]: Stability in simulated gastric fluid at pH 1.1 assessed as drug degradation at 1 mM measured after 24 hrs by HPLC analysis. In kind it is ADME. The conditions noted are these: read-out: Drug degradation.
Series [5] can be described thus: Antioxidant activity assessed as DPPH radical scavenging activity measured for 60 mins by spectrophotometric analysis. It counts as functional. In general terms: The DPPH test is a chemical assay of radical scavenging.
The nature of series [6]: Stability in alkaline phosphatase buffer at pH 7.4 assessed as drug degradation at 1 mM measured after 48 hrs by HPLC analysis. In kind it is ADME. The conditions noted are these: read-out: Drug degradation.
Series [7] in a line: Prodrug conversion assessed as RNase (unknown origin) -mediated drug release by measuring half life in imidazole buffer at 1 mM by UV/Vis detector based HPLC analysis. The conditions noted are these: human, 1000 µM. It counts as ADME.
Series [8] can be described thus: Aqueous solubility of the compound. In kind it is physicochemical. The conditions noted are these: buffer.

Regarding `COc1cc(C2Oc3cc([C@H]4Oc5cc(O)cc(O)c5C(=O)[C@@H]4O)ccc3OC2COP(=O)(O)O[C@H]2[C@@H](O)[C@H](n3cnc4c(N)ncnc43)O[C@@H]2CO)ccc1O` (stereo not given in full), the t1/2 in series [1] and in series [7] was over 48 h each time. The Activity entry in series [2] is listed as “Non-Toxic”. Also, in series [3], the half-life at 1000 µM was over 1440 min. Also, in series [4], the degraded at 24 h, 1000 µM is under 5%. The pEC50 in series [5] is 3.21. For the same compound, the degraded at 48 h, 1000 µM in series [6] was under 2%. In addition, in series [8], the solubility result was “Soluble”.
For `COc1cc([C@H]2Oc3cc([C@H]4Oc5cc(O)cc(O)c5C(=O)[C@@H]4O)ccc3O[C@@H]2COP(=O)(O)O[C@H]2[C@@H](O)[C@H](n3ccc(=O)[nH]c3=O)O[C@@H]2CO)ccc1O`, the t1/2 in series [1] is 13 h; in series [7], 1.45 h. For the same compound, the Activity entry in series [2] is reported as “Non-Toxic”. Besides, in series [3], the half-life at 1000 µM was over 1440 min. Besides, the degraded at 24 h, 1000 µM in series [4] is 27%. The negative logarithm of the EC50 (pEC50) in series [5] is 3.24. Moreover, the degraded at 48 h, 1000 µM in series [6] is under 2%. The solubility result in series [8] was “Soluble”.
Consider `COc1cc([C@@H]2Oc3cc([C@H]4Oc5cc(O)cc(O)c5C(=O)[C@@H]4O)ccc3O[C@H]2COP(=O)(O)O[C@H]2[C@@H](O)[C@H](n3cnc4c(N)ncnc43)O[C@@H]2CO)ccc1O`, for which the t1/2 in series [1] and in series [7] was over 48 h in each case. For the same compound, the Activity entry in series [2] was “Non-Toxic”. The half-life at 1000 µM in series [3] was over 1440 min. The degraded at 24 h, 1000 µM in series [4] is under 5%. Moreover, the pEC50 in series [5] is 3.24. The degraded at 48 h, 1000 µM in series [6] is under 2%. Further, the solubility result in series [8] is on record as “Soluble”.
Regarding `COc1cc([C@@H]2Oc3cc([C@H]4Oc5cc(O)cc(O)c5C(=O)[C@@H]4O)ccc3O[C@H]2COP(=O)(O)O[C@H]2[C@@H](O)[C@H](n3ccc(=O)[nH]c3=O)O[C@@H]2CO)ccc1O`, the figures for the t1/2 in series [1] and in series [7] were 11 h and 0.833 h, respectively. The Activity entry in series [2] is given as “Non-Toxic”. Also, the half-life at 1000 µM in series [3] was over 1440 min. In addition, the degraded at 24 h, 1000 µM in series [4] is 27%. The pEC50 in series [5] is 3.28. In addition, the degraded at 48 h, 1000 µM in series [6] is under 2%. Also, in series [8], the solubility result is “Soluble”.
For `COc1cc([C@H]2Oc3cc([C@H]4Oc5cc(O)cc(O)c5C(=O)[C@@H]4O)ccc3O[C@@H]2COP(=O)(O)O[C@H]2[C@@H](O)[C@H](n3cnc4c(N)ncnc43)O[C@@H]2CO)ccc1O`, the t1/2 in series [1] and in series [7] was over 48 h in each case. Besides, in series [2], the Activity result was “Non-Toxic”. In series [3], the half-life at 1000 µM was over 1440 min. Also, in series [4], the degraded at 24 h, 1000 µM was under 5%. Moreover, in series [5], the negative-log EC50 (pEC50) was 3.20. The degraded at 48 h, 1000 µM in series [6] is under 2%. The solubility entry in series [8] was “Soluble”.
`COc1cc(C2Oc3cc([C@H]4Oc5cc(O)cc(O)c5C(=O)[C@@H]4O)ccc3OC2COP(=O)(O)O[C@H]2[C@@H](O)[C@H](n3ccc(=O)[nH]c3=O)O[C@@H]2CO)ccc1O` (stereo not given in full): the figures for the t1/2 in series [1] and in series [7] were 20 h and 1.67 h, respectively. Moreover, the Activity result in series [2] is “Non-Toxic”. Moreover, the half-life at 1000 µM in series [3] was over 1440 min. For the same compound, the degraded at 24 h, 1000 µM in series [4] was 27%. Further, the pEC50 in series [5] is 3.31. The degraded at 48 h, 1000 µM in series [6] was under 2%. Besides, the solubility entry in series [8] is recorded as “Soluble”.
In the case of `COc1cc(C2Oc3cc([C@H]4Oc5cc(O)cc(O)c5C(=O)[C@@H]4O)ccc3OC2CO)ccc1O` (stereo not given in full) [SILIBININ], the pEC50 in series [5] is 3.21. Also, in series [8] (read-out: solubility), the solubility came to 1 µM (≈ 0.482 µg/mL).
On to `COc1cc([C@H]2Oc3cc([C@H]4Oc5cc(O)cc(O)c5C(=O)[C@@H]4O)ccc3O[C@@H]2CO)ccc1O` [SILYBIN A], for which the Activity result in series [2] is given as “Non-Toxic”. In addition, in series [5], the pEC50 is 3.44.
For `COc1cc([C@@H]2Oc3cc([C@H]4Oc5cc(O)cc(O)c5C(=O)[C@@H]4O)ccc3O[C@H]2CO)ccc1O` [SILYBIN B] the same measures were “Non-Toxic” and 3.24.
Consider `Cc1c(C)c2c(c(C)c1O)CCC(C)(C(=O)O)O2` (stereo not given) [TROLOX], for which the pEC50 in series [5] was 4.55.
